Experimental data from patent US20260159536A1, “AKR1C3-ACTIVATED DNA ALKYLATING AGENT, AND MEDICAL APPLICATION THEREOF” (ASCENTAWITS PHARMACEUTICALS, LTD., priority 2021, published 2026).
“And” between values parts separate entries of the source, which are not always exact repeats. Equal entries are not always repeated. Where two headings read alike, the source gives them in different places.

Assays:
[1] = Blood-brain barrier assay of Compound A (plasma and brain concentration, PK); assay type: in vivo, CD-1 mice; conditions: for concentration at 0.083 h / concentration at 0.25 h / concentration at 1 h / concentration at 2 h / concentration at 4 h / concentration at 8 h / Kp at 0.083 h / Kp at 0.25 h / Kp at 1 h / Kp at 2 h / Kp at 4 h / Kp at 8 h / Brain concentration / Plasma concentration / Ratio (Brain/Plasma): IV 1 mg/kg; for MRT inf: read-out: MRTInf_obs; for half-life: read-out: T½ (converted)
Experimental: Three CD-1 mice were administered 1 mg/kg of the test Compound A intravenously at each time point. Blood and brain tissue were taken at 5 min, 15 min, 1 h, 2 h, 4 h and 8 h after administration.
The PK (Pharmacokinetic) parameters obtained from the above assays were listed as follows, as shown in Table 33 and Table 34. • PK parameters, pharmacokinetic parameters. • T1/2, half-life. • Cl-obs, plasma clearance. • C0, starting concentration. • AUClast, area under the concentration-time curve from start of administration time to the last point. • AUCInf, area under the concentration-time curve from start of administration to the time at infinity. • Tmax, time to maximum observed plasma concentration. • Cmax, concentration to maximum observed plasma concentration. • MRTlnf-obs, represents the mean residence time from the start of administration to the time of theoretical extrapolation to infinity. • AUClnf Ration (Brain/Plasma), the ratio of the area under the concentration-time curve of serum and brain tissue from the start of administration to the time at infinity. • Unit, unit. • Mean, average value.

[2] = tested on: HuPrime model LI6280 human liver cancer; assay: In vivo pharmacodynamics, liver cancer LI6280 PDX model; set-up: species or system BALB/c nude mice; conditions: for Tumor volume: 4.5 mg/kg i.v.
Experimental: Experiment Instruction: BALB/c nude mice were subcutaneously inoculated with HuPrime® model LI6280 tumour blocks to establish a subcutaneous transplantation tumour model of human liver cancer. […] The efficacy was evaluated according to the relative tumor inhibition rate TGI (%), and the safety was evaluated according to the change in body weight and the death of the animals.

[3] = tested on: human liver cancer HepG2 cells; assay: In vivo pharmacodynamics, liver cancer HepG2 CDX model; set-up: species or system BALB/c nude mice; conditions: 1.25 mg/kg i.p.
Experimental: Experiment Instruction: BALB/c nude mice were subcutaneously inoculated with human liver cancer HepG2 cells to establish a subcutaneous transplantation tumor model of human liver cancer. […] The efficacy was evaluated according to the relative tumor inhibition rate TGI (%), and the safety was evaluated according to the change in body weight and the death of the animals.

[4] = CD-1, mouse, iv, brain tissues, 1 mg/kg intravenously, Mean
[5] = CD-1, mouse, iv, plasma, 1 mg/kg intravenously, Mean
[6] = 0.083 h, individual animals, 1 mg/kg
[7] = 0.25 h, individual animals, 1 mg/kg
[8] = 1 h, individual animals, 1 mg/kg
[9] = 2 h, individual animals, 1 mg/kg
[10] = 4 h, individual animals, 1 mg/kg
[11] = 8 h, individual animals, 1 mg/kg
[12] = brain tissues, 1 mg/kg intravenously, Mean
[13] = plasma, 1 mg/kg intravenously, Mean

## O=[N+]([O-])c1ccc(C(OP(=O)(N2CC2)N2CC2)C(F)(F)F)cc1Oc1ccc(-c2ccc(F)cc2)c(F)c1 (racemic) [Compound A]
[1]; 1 mg/kg intravenously, within 8 hours
  blood-brain barrier penetration: can effectively penetrate the blood-brain barrier
[1]; CD-1, mouse, brain, iv, 1 mg/kg, 0.083 h, individual animals, read-out: Brain concentration
  concentration at 0.083 h: 538 ng/g
[1]; CD-1, mouse, brain, iv, 1 mg/kg, 0.25 h, individual animals, read-out: Brain concentration
  concentration at 0.25 h: 419 ng/g
[1]; CD-1, mouse, brain, iv, 1 mg/kg, 1 h, individual animals, read-out: Brain concentration
  concentration at 1 h: 180 ng/g
[1]; CD-1, mouse, brain, iv, 1 mg/kg, 2 h, individual animals, read-out: Brain concentration
  concentration at 2 h: 107 ng/g
[1]; CD-1, mouse, brain, iv, 1 mg/kg, 4 h, individual animals, read-out: Brain concentration
  concentration at 4 h: 71.2 ng/g
[1]; CD-1, mouse, brain, iv, 1 mg/kg, 8 h, individual animals, read-out: Brain concentration
  concentration at 8 h: 23.6 ng/g
[1]; CD-1, mouse, brain/plasma, iv, 1 mg/kg, 1 mg/kg intravenously, Mean, read-out: AUCInf Ratio (Brain/Plasma)
  Kp: 0.8
[1]; CD-1, mouse, brain/plasma, iv, 1 mg/kg, 0.083 h, individual animals, read-out: Ratio (Brain/Plasma)
  Kp at 0.083 h: 1.17
[1]; CD-1, mouse, brain/plasma, iv, 1 mg/kg, 0.083 h, mean of 3 animals, read-out: Ratio (Brain/Plasma), Mean
  Kp at 0.083 h: 1.28
[1]; CD-1, mouse, brain/plasma, iv, 1 mg/kg, 0.25 h, individual animals, read-out: Ratio (Brain/Plasma)
  Kp at 0.25 h: 1.13
[1]; CD-1, mouse, brain/plasma, iv, 1 mg/kg, 0.25 h, mean of 3 animals, read-out: Ratio (Brain/Plasma), Mean
  Kp at 0.25 h: 1.15
[1]; CD-1, mouse, brain/plasma, iv, 1 mg/kg, 1 h, individual animals, read-out: Ratio (Brain/Plasma)
  Kp at 1 h: 0.8
[1]; CD-1, mouse, brain/plasma, iv, 1 mg/kg, 1 h, mean of 3 animals, read-out: Ratio (Brain/Plasma), Mean
  Kp at 1 h: 0.76
[1]; CD-1, mouse, brain/plasma, iv, 1 mg/kg, 2 h, individual animals, read-out: Ratio (Brain/Plasma)
  Kp at 2 h: 0.71
[1]; CD-1, mouse, brain/plasma, iv, 1 mg/kg, 2 h, mean of 3 animals, read-out: Ratio (Brain/Plasma), Mean
  Kp at 2 h: 0.67
[1]; CD-1, mouse, brain/plasma, iv, 1 mg/kg, 4 h, individual animals, read-out: Ratio (Brain/Plasma)
  Kp at 4 h: 0.74
[1]; CD-1, mouse, brain/plasma, iv, 1 mg/kg, 4 h, mean of 3 animals, read-out: Ratio (Brain/Plasma), Mean
  Kp at 4 h: 0.78
[1]; CD-1, mouse, brain/plasma, iv, 1 mg/kg, 8 h, individual animals, read-out: Ratio (Brain/Plasma)
  Kp at 8 h: 0.48
[1]; CD-1, mouse, brain/plasma, iv, 1 mg/kg, 8 h, mean of 3 animals, read-out: Ratio (Brain/Plasma), Mean
  Kp at 8 h: 0.52
[1]; [4]
  Cmax: 543 ng/g
  Tmax: 4.8 min
  MRT inf: 2.99 h
  half-life: 2.8 h
[1]; [5]
  AUC(0-inf): 1200 ng·h/mL
  AUC(0-t): 980 ng·h/mL
  C0: 453 ng/mL
  MRT inf: 4.37 h
  half-life: 3.64 h
[1]; CD-1, mouse, plasma, iv, 1 mg/kg, 0.083 h, individual animals, read-out: Plasma concentration
  concentration at 0.083 h: 460 ng/mL
[1]; CD-1, mouse, plasma, iv, 1 mg/kg, 0.25 h, individual animals, read-out: Plasma concentration
  concentration at 0.25 h: 372 ng/mL
[1]; CD-1, mouse, plasma, iv, 1 mg/kg, 1 h, individual animals, read-out: Plasma concentration
  concentration at 1 h: 229 ng/mL
[1]; CD-1, mouse, plasma, iv, 1 mg/kg, 2 h, individual animals, read-out: Plasma concentration
  concentration at 2 h: 150 ng/mL
[1]; CD-1, mouse, plasma, iv, 1 mg/kg, 4 h, individual animals, read-out: Plasma concentration
  concentration at 4 h: 96.4 ng/mL
[1]; CD-1, mouse, plasma, iv, 1 mg/kg, 8 h, individual animals, read-out: Plasma concentration
  concentration at 8 h: 48.8 ng/mL
[1]; [6]
  Brain concentration: 540.75 ng/g and 549.95 ng/g
  Plasma concentration: 400.55 ng/mL and 416.19 ng/mL
  Ratio (Brain/Plasma): 1.35 and 1.32
[1]; [7]
  Brain concentration: 489.60 ng/g and 371.38 ng/g
  Plasma concentration: 382.24 ng/mL and 384.54 ng/mL
  Ratio (Brain/Plasma): 1.35 and 0.97
[1]; [8]
  Brain concentration: 188.68 ng/g and 169.85 ng/g
  Plasma concentration: 238.84 ng/mL and 249.07 ng/mL
  Ratio (Brain/Plasma): 0.79 and 0.68
[1]; [9]
  Brain concentration: 94.27 ng/g and 77.50 ng/g
  Plasma concentration: 134.42 ng/mL and 131.84 ng/mL
  Ratio (Brain/Plasma): 0.70 and 0.59
[1]; [10]
  Brain concentration: 68.47 ng/g and 42.73 ng/g
  Plasma concentration: 74.91 ng/mL and 63.17 ng/mL
  Ratio (Brain/Plasma): 0.91 and 0.88
[1]; [11]
  Brain concentration: 21.85 ng/g and 18.85 ng/g
  Plasma concentration: 49.05 ng/mL and 29.91 ng/mL
  Ratio (Brain/Plasma): 0.45 and 0.83
[1]; [12]
  AUCInf: 872.43 ng·h/g
  AUClast: 785.85 ng·h/g
[1]; [13]
  Cl_obs: 13.85 mL/min/kg
  Vss_obs: 3.63 L/kg
[2]; 4.5 mg/kg i.v. QWx3, Day 17
  Relative tumor volume (x ± S): 20.79 ± 1.15
  T/C (%): 101.41%
  TGI (%): −1.41%
[2]; 4.5 mg/kg i.v. QWx3, Day 17, in mm³ (unit assumed)
  Tumor volume (x ± S): 2201.20 ± 287.44
[2]; Day 0
  Tumor volume: 103.98 mm^3
[2]; Day 3
  Tumor volume: 150.33 mm^3
[2]; Day 7
  Tumor volume: 318.74 mm^3
[2]; Day 10
  Tumor volume: 683.99 mm^3
[2]; Day 14
  Tumor volume: 1404.42 mm^3
[2]; Day 17
  Tumor volume: 2201.20 mm^3
[2]; Day 21
  Tumor volume: 2739.12 mm^3
[2]; Day 24
  Tumor volume: 3311.77 mm^3
[2]; Day 28
  Tumor volume: 3362.07 mm^3
[3]; Day 19
  Tumor volume: 189.54 mm^3
[3]; Day 22
  Tumor volume: 315.41 mm^3
[3]; Day 24
  Tumor volume: 351.74 mm^3
[3]; Day 27
  Tumor volume: 383.10 mm^3
